Source: publication PMC3216237 (Environmental science & technology, 2011)

Columns and labels:
rat liver microsomes = assay type: in vitro ADME; details: for Enantiomeric fraction (EF) of OH-PCB metabolite: column not specified, microsomal incubation 50 μM PCB, 30 min
Ryanodine receptor (RyR) = details: enantiospecific, only this atropisomer active; cited from earlier work
[1] = liver of rats treated with Aroclor 1254; cited from earlier work

Q: With `Oc1cc(Cl)c(Cl)c(-c2cc(Cl)ccc2Cl)c1Cl` [5–95] as the compound, how does the “Enantiomeric fraction (EF) of OH-PCB metabolite” value (rat liver microsomes) read?
A: The value was “approximately 0.33”.

Q: For `Oc1cc(Cl)c(Cl)c(-c2cc(Cl)c(Cl)cc2Cl)c1Cl` [5–149], which “Enantiomeric fraction (EF) of OH-PCB metabolite” value (rat liver microsomes) is on record?
A: Its value is 0.65.

Q: For `Clc1ccc(Cl)c(-c2c(Cl)ccc(Cl)c2Cl)c1Cl` [(-)-PCB 136, 2,2′,3,3′,6,6′-hexachlorobiphenyl], which “Sensitization of RyRs” value (Ryanodine receptor (RyR)) is on record?
A: The value was “active”.

Q: With `Oc1cc(Cl)c(Cl)c(-c2ccc(Cl)cc2Cl)c1Cl` [5–91] as the compound, how does the “Enantiomeric fraction (EF) of OH-PCB metabolite” value (rat liver microsomes) read?
A: Its value is 0.54.

Q: With `Clc1cc(Cl)c(-c2c(Cl)ccc(Cl)c2Cl)cc1Cl` [PCB 149] as the compound, how does the “Enantiomeric fraction (EF) in liver” value [1] read?
A: The value was 0.45.

Q: With `Oc1cc(Cl)c(Cl)c(-c2ccc(Cl)c(Cl)c2Cl)c1Cl` [5′-132] as the compound, how does the “Enantiomeric fraction, CB column” value (rat liver microsomes; Cyclosil-B column, analysis conducted at 170 °C, metabolite analysed as MeO-PCB) read?
A: Its value is 0.31 ^a, ^#.

Q: And the “Enantiomeric fraction (EF) of OH-PCB metabolite” value (rat liver microsomes)?
A: Its value is 0.31.

Q: For `Clc1ccc(Cl)c(-c2c(Cl)ccc(Cl)c2Cl)c1` [PCB 95], which “Enantiomeric fraction (EF) in liver” value [1] is on record?
A: Its value is 0.63.
